Each compound was assayed against Human CARM1 (PRMT4) (Homo sapiens (Human), UniProt Q86X55) (assay: CARM1 enzyme assay on peptide substrate (3H-SAM Flashplate)). Settings: Biochemical potencies, classification codes; read-out: Biochem IC50.
Sequence of Human CARM1 (PRMT4) (Q86X55 other isoform, or with tags, fused parts or gaps isoform Q86X55-1): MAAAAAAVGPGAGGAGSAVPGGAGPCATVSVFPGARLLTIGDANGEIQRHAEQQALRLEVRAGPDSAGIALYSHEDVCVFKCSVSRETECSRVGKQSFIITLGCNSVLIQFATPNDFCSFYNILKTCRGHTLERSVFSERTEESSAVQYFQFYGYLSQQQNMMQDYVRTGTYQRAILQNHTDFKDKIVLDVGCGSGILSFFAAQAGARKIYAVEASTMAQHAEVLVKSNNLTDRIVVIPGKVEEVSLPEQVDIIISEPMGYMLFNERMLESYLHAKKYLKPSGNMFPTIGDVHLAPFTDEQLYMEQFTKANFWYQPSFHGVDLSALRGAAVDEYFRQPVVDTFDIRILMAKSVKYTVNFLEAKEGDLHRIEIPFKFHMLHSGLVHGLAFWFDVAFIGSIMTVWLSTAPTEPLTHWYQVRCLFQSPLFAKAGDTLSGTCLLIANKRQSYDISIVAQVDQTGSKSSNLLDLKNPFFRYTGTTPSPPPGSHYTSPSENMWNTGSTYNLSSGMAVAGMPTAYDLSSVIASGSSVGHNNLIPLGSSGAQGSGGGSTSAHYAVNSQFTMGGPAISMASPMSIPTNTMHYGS

Compound	IC50
CNCC(O)COc1cccc(-c2nc(NCC3CCOCC3)c(Cl)c(-c3c(C)noc3C)n2)c1 (stereo not drawn) [Example 142-1a]	< 100 nM
CNCC(O)COc1cccc(-c2cc(N(C)C3CCOCC3)nc(-c3cccnc3)n2)c1 (stereo not drawn) [Example 14-2]	< 100 nM
CNCC(O)COc1cc(Cl)cc(-c2nc(-c3ccncc3)c(Br)c(N(C)C3CCOCC3)n2)c1 (stereo not drawn) [Example 611-1a]	< 100 nM
CNCC(O)COc1cccc(-c2nc(-c3c(C)noc3C)c(C)c(N3CCC4(CC3)CN(C(=O)OC)C4)n2)c1 (stereo not drawn) [Example 251-1a]	< 100 nM
CNCC(O)COc1cccc(-c2nc(NC3CC(F)C3)c(C)c(-c3c(C)noc3C)n2)c1 (stereo not drawn) [Example 3-3]	< 100 nM
CNCC(O)COc1cccc(-c2nc(N[C@@H]3CCOC3)c(C)c(-c3cncc(C#N)c3)n2)c1 (stereo partly drawn) [Example 341-1a]	< 100 nM
CNCC(O)COc1cccc(-c2nc(N[C@@H]3CCOC3)c(C)c(N3Cc4cccnc4C3)n2)c1 (stereo partly drawn) [Example 394-1a]	< 100 nM
CNC[C@H](O)COc1ccc(F)c(-c2nc(NC3CCOC(C)C3)c(C)c(-c3c(C)noc3C)n2)c1 (stereo partly drawn) [Example 73-3]	< 100 nM
CCOC(=O)N1CCOC[C@@H]1CNc1nc(-c2cc(OC[C@@H](O)CNC)ccc2F)nc(-c2c(C)noc2C)c1C [Example 61-3]	< 100 nM
CNCC(O)COc1cc(NC)cc(-c2nc(NC3CCOCC3)c(C)c(-c3c(C)noc3C)n2)c1 (stereo not drawn) [Example 136-1a]	< 100 nM
CCOC(=O)N1CCOC[C@H]1CNc1nc(-c2cc(OC[C@H](O)CNC)ccc2F)nc(-c2c(C)noc2C)c1C [Example 60-3]	< 100 nM
CNCC(O)COc1cccc(-c2nc(NCC3CCCN(CC(F)F)C3)c(C)c(-c3c(C)noc3C)n2)c1 (stereo not drawn) [Example 193-1a]	< 100 nM
CNCC(O)COc1cccc(-c2nc(N3CCN(CCF)[C@@H](C)C3)cc(N(C)C3CCOCC3)n2)c1 (stereo partly drawn) [Example 578-1a]	< 100 nM
CNCC(O)COc1cccc(-c2nc(-c3c(C)noc3C)cc(N3CCNC(C)(C)C3)n2)c1 (stereo not drawn) [Example 36-1a]	< 100 nM
CNCC(O)COc1cccc(-c2nc(NC3CCOC3)c(C)c(N3CC4CC(C3)N4)n2)c1 (stereo not drawn) [Example 452-1a]	< 100 nM
CNCC(O)COc1ccc(Cl)c(-c2nc(NC3CC4(CC4)C3)c(C)c(-c3c(C)noc3C)n2)c1 (stereo not drawn) [Example 218-3]	< 100 nM
CNC[C@@H](O)COc1cccc(-c2nc(-c3cn(S(C)(=O)=O)c4ncncc34)c(C)c(N(C)C3CCOCC3)n2)c1 [Example 488-1a]	< 100 nM
CNC[C@@H](O)COc1ccc(Cl)c(-c2nc(-c3c(C)noc3C)c(C)c(N3Cc4nc(C)sc4C3)n2)c1 [Example 192-3]	< 100 nM
CNCC(O)COc1cccc(-c2nc(-c3c(C)noc3C)cc(N3CCNC(C)C3)n2)c1 (stereo not drawn) [Example 35-1a]	< 100 nM
CNCC(O)COc1cccc(-c2nc(C(=O)NC3CCOCC3)c(C)c(C(=O)NC3CCOCC3)n2)c1 (stereo not drawn) [Example 677-1a]	> 10000 nM
CNCC(O)COc1cccc(-c2nc(-c3cnc4[nH]ccc4c3)cc(N(C)C3CCOCC3)n2)c1 (stereo not drawn) [Example 55-1]	< 100 nM
CNC[C@@H](O)COc1ccc(F)c(-c2nc(-c3c(C)noc3C)c(C)c(N3CC4(CCCCO4)C3)n2)c1 [Example 269-3]	< 100 nM
CCS(=O)(=O)N1CCCC(Nc2nc(-c3cccc(OCC(O)CNC)c3)nc(-c3c(C)noc3C)c2C)C1 (stereo not drawn) [Example 204-1a]	< 100 nM

Compound	IC50
CCOC(=O)N1CCC[C@@H]1CCNc1nc(-c2cc(OC[C@H](O)CNC)ccc2Cl)nc(-c2c(C)noc2C)c1C [Example 136-3]	< 100 nM
CNCC(O)COc1cccc(-c2nc(-c3c(C)noc3C)c(C)c(N3CC(NC(=O)OC)C3)n2)c1 (stereo not drawn) [Example 12-3]	< 100 nM
CNC[C@@H](O)COc1ccc(Cl)c(-c2nc(-c3c(C)noc3C)c(C)c(N3CC4(CCN(CC(F)F)CC4)C3)n2)c1 [Example 283-3]	< 100 nM
CNCC(O)COc1ccc(Cl)c(-c2nc(NC3CC(C)N(C(=O)OC)C(C)C3)c(C)c(-c3c(C)noc3C)n2)c1 (stereo not drawn) [Example 46-3]	< 100 nM
CNCC(O)COc1cccc(-c2nc(NC3CCOC3)c(C)c(C(=O)NC3CCN(C)CC3)n2)c1 (stereo not drawn) [Example 397-1a]	< 100 nM
CNCC(O)COc1cccc(-c2nc(N[C@@H]3CCOC3)c(C)c(N3C[C@H]4C[C@@H]3CN4C)n2)c1 (stereo partly drawn) [Example 443-1a]	< 100 nM
CC[C@H]1CN(c2cc(N(C)C3CCOCC3)nc(-c3cccc(OCC(O)CNC)c3)n2)CCN1 (stereo partly drawn) [Example 505-1a]	< 100 nM
CNCC(O)COc1cccc(-c2nc(-c3c(C)noc3C)cc(N3C[C@H]4C[C@@H]3CN4)n2)c1 (stereo partly drawn) [Example 109-1a]	< 100 nM
C=C(C)c1cc(N(C)C2CCOCC2)nc(-c2cccc(OCC(O)CNC)c2)n1 (stereo not drawn) [Example 11-1]	< 100 nM
CNCC(O)COc1ccc(Cl)c(-c2nc(NC3(C)CCOCC3)c(Cl)c(-c3c(C)noc3C)n2)c1 (stereo not drawn) [Example 137-1a]	< 100 nM
CNC[C@@H](O)COc1ccc(Cl)c(-c2nc(N[C@H]3COC[C@@H]3O)c(C)c(-c3c(C)noc3C)n2)c1 [Example 209-3]	< 100 nM
CNCC(O)COc1cccc(-c2nc(-c3cn(C)c4ncncc34)cc(N(C)C3CCOCC3)n2)c1 (stereo not drawn) [Example 485-1a]	< 100 nM
CNCC(O)COc1ccc(Cl)c(-c2nc(NC3CC(O)(C(F)(F)F)C3)c(C)c(-c3c(C)noc3C)n2)c1 (stereo not drawn) [Example 38-3]	< 100 nM
CCS(=O)(=O)N1CCCC(CNc2nc(-c3cccc(OCC(O)CNC)c3)nc(-c3c(C)noc3C)c2C)C1 (stereo not drawn) [Example 167-1a]	< 100 nM
CNCC(O)COc1cccc(-c2nc(NC[C@H]3COCCN3C(=O)N(C)C)c(C)c(-c3c(C)noc3C)n2)c1 (stereo partly drawn) [Example 258-1a]	< 100 nM
CNCC(O)COc1cccc(-c2nc(NC[C@@H]3CN(C(=O)OC)CCO3)c(C)c(-c3c(C)noc3C)n2)c1 (stereo partly drawn) [Example 306-1a]	< 100 nM
CNCC(O)COc1ccc(Cl)c(-c2nc(NC3CCN(C(=O)OC)CC3)c(Cl)c(-c3c(C)noc3C)n2)c1 (stereo not drawn) [Example 187-1a]	< 100 nM
CNCC(O)COc1cccc(-c2nc(Nc3cn(C)cn3)c(C)c(-c3c(C)noc3C)n2)c1 (stereo not drawn) [Example 210-1a]	< 100 nM
CNCC(O)COc1cc(Cl)cc(-c2nc(-c3cnn(C)c3)cc(N(C)C3CCOCC3)n2)c1 (stereo not drawn) [Example 610-1a]	< 100 nM
CNCC(O)COc1cc(OC)cc(-c2nc(NC3CCOCC3)c(C)c(-c3c(C)noc3C)n2)c1 (stereo not drawn) [Example 75-1a]	< 100 nM
CNC[C@@H](O)COc1ccc(F)c(-c2nc(-c3c(C)noc3C)c(C)c(N3CC4(CCOCC4)C3)n2)c1 [Example 227-3]	< 100 nM
CNC[C@H](O)COc1ccc(Cl)c(-c2nc(-c3c(C)noc3C)c(C)c(N3CCC4(CC3)CN(S(C)(=O)=O)C4)n2)c1 [Example 75-3]	< 100 nM
CNCC(O)COc1cccc(-c2nc(N[C@H]3C[C@H](C(=O)OC)C3)c(C)c(-c3c(C)noc3C)n2)c1 (stereo partly drawn) [Example 221-1a]	< 100 nM

Compound	IC50
CNCC(O)COc1ccc(Cl)c(-c2nc(NC3CC4(C3)CN(C(=O)OC)C4)c(C)c(-c3c(C)noc3C)n2)c1 (stereo not drawn) [Example 45-3]	< 100 nM
CNC[C@@H](O)COc1ccc(Cl)c(-c2nc(-c3c(C)noc3C)c(C)c(C3CC3)n2)c1 [Example 205-3]	< 100 nM
CNC[C@@H](O)COc1ccc(F)c(-c2nc(-c3c(C)noc3C)c(C)c(N3CC4(CCN(CC(F)F)CC4)C3)n2)c1 [Example 280-3]	< 100 nM
CNCC(O)COc1cccc(-c2cc(N(C)C3CCOCC3)nc(N3CCOCC3)n2)c1 (stereo not drawn) [Example 15-2]	< 100 nM
CNCC(O)COc1cccc(-c2nc(NC3CCCN(C(=O)OC)C3)c(C)c(-c3c(C)noc3C)n2)c1 (stereo not drawn) [Example 201-1a]	< 100 nM
CNCC(O)COc1cccc(-c2nc(-c3c(C)noc3C)c(C)c(N3CCC[C@H](N(C)C(=O)OC)C3)n2)c1 (stereo partly drawn) [Example 15-3]	< 100 nM
CCS(=O)(=O)N1CC2(CN(c3nc(-c4cccc(OCC(O)CNC)c4)nc(-c4c(C)noc4C)c3C)C2)C1 (stereo not drawn) [Example 16-3]	< 100 nM
CNCC(O)COc1cccc(-c2nc(-c3cn(C)cn3)cc(N(C)C3CCOCC3)n2)c1 (stereo not drawn) [Example 501-1a]	< 100 nM
CNC[C@@H](O)COc1ccc(Cl)c(-c2nc(-c3c(C)noc3C)c(C)c(N3CCC4(CCOC4)C3)n2)c1 (stereo partly drawn) [Example 288-3]	< 100 nM
CC[C@H]1CN(c2nc(-c3cccc(OCC(O)CNC)c3)nc(-c3c(C)noc3C)c2C)CCN1S(C)(=O)=O (stereo partly drawn) [Example 155-1a]	< 100 nM
CCN1CCN(c2cc(-c3c(C)noc3C)nc(-c3cccc(OCC(O)CNC)c3)n2)CC1 (stereo not drawn) [Example 20-1a]	< 100 nM
CCOC(=O)N1CCC2(CC1)CN(c1nc(-c3cc(OC[C@H](O)CNC)ccc3Cl)nc(-c3c(C)noc3C)c1C)C2 [Example 285-3]	< 100 nM
CNCC(O)COc1ccc(Cl)c(-c2nc(NC[C@H]3CCCO3)c(C)c(-c3c(C)noc3C)n2)c1 (stereo partly drawn) [Example 6-3]	< 100 nM
CNC[C@H](O)COc1cccc(-c2nc(NC3CCN(C(=O)OC)CC3)c(C)c(-c3c(C)noc3C)n2)c1 [Example 169-1a]	< 100 nM
CNC[C@@H](O)COc1ccc(Cl)c(-c2nc(-c3c(C)noc3C)c(C)c(C3CCOCC3)n2)c1 [Example 268-3]	< 100 nM
CNCC(O)COc1cccc(-c2nc(-c3c(C)noc3C)cc(N3CCC4(CC3)NC(=O)NC4=O)n2)c1 (stereo not drawn) [Example 42-1a]	< 100 nM
CCO[C@@H]1CCC[C@H]1Nc1nc(-c2cc(OC[C@H](O)CNC)ccc2F)nc(-c2c(C)noc2C)c1C [Example 191-3]	< 100 nM
CNCC(O)COc1cccc(-c2nc(NC3CCOCC3)c(C)c(N3CCN(C(C)C)CC3)n2)c1 (stereo not drawn) [Example 644-1a]	< 100 nM
CNC[C@@H](O)COc1ccc(F)c(-c2nc(-c3c(C)noc3C)cc(N3Cc4nccnc4C3)n2)c1 [Example 274-3]	< 100 nM
CNCC(O)COc1cccc(-c2nc(NC3CCOCC3)c(C)c(-c3c(C)noc3CO)n2)c1 (stereo not drawn) [Example 145-3]	< 100 nM
CNCC(O)COc1cccc(-c2nccc(NC3CCOCC3)n2)c1 (stereo not drawn) [Example 4-1]	> 10000 nM
CNCC(O)COc1cccc(-c2nc(NC3CCN(C(=O)C4CC4)C3)c(C)c(-c3c(C)noc3C)n2)c1 (stereo not drawn) [Example 243-1a]	< 100 nM
CNC[C@@H](O)COc1ccc(Cl)c(-c2nc(NC[C@H]3CCCN3C(=O)OC(C)C)c(C)c(-c3c(C)noc3C)n2)c1 [Example 160-3]	< 100 nM

From US20230279020A9, “CARM1 INHIBITORS AND USES THEREOF” (Epizyme, Inc., priority 2013, published 2023)
